Experimental data from ChEMBL document CHEMBL4390688, “Accelerating the discovery of DGAT1 inhibitors through the application of parallel medicinal chemistry (PMC)” (Bioorg Med Chem Lett, 2019).

What was measured:
[1] = molecular target: T1, Diacylglycerol O-acyltransferase 1 (Mus musculus, UniProt Q9Z2A7)
T1 sequence (Q9Z2A7 whole entry): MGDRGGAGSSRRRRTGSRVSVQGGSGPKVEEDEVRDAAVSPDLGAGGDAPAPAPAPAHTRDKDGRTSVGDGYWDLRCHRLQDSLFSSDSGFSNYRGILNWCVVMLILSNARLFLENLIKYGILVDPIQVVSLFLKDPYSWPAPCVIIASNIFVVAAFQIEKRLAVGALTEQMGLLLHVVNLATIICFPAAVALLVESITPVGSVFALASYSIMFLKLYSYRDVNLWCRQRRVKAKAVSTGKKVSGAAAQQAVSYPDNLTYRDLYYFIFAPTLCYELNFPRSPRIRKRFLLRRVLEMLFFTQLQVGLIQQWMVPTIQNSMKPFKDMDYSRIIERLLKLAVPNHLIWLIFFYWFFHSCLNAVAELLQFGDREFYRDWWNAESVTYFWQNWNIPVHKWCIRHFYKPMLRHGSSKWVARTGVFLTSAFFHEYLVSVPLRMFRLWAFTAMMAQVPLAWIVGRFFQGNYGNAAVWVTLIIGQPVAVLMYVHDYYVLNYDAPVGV
Description: Inhibition of mouse DGAT1

[2] = Distribution coefficient, log D of compound; assay type: physicochemical; settings: octanol/water
[3] = molecular target: Voltage-gated inwardly rectifying potassium channel KCNH2 (Homo sapiens, UniProt Q12809); assay: Inhibition of human ERG
Mus musculus = assay: Reduction in lipid excursion in mouse at 10 mg/kg, po QD measured at 18 hrs post dose by lipid tolerance test relative to control; assay type: functional; design: scale not given: the % may be the effect or the level left
[4] = molecular target: T2, Diacylglycerol O-acyltransferase 1 (Homo sapiens, UniProt O75907)
T2 sequence (O75907 whole entry): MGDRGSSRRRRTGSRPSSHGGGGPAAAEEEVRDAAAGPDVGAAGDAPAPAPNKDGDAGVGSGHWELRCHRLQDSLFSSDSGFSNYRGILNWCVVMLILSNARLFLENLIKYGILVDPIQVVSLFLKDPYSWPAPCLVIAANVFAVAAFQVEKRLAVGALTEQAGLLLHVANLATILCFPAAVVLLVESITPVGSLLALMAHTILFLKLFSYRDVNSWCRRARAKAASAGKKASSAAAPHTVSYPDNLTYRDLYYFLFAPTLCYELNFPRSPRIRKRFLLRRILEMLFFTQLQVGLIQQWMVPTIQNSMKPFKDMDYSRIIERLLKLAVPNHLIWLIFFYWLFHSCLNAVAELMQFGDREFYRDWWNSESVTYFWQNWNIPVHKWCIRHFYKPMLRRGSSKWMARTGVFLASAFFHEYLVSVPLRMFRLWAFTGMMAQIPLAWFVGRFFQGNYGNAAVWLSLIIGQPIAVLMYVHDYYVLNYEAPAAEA
Description: Inhibition of human DGAT1

[5] = molecular target: T3, Sterol O-acyltransferase 1 (Homo sapiens, UniProt P35610)
T3 sequence (P35610 whole entry): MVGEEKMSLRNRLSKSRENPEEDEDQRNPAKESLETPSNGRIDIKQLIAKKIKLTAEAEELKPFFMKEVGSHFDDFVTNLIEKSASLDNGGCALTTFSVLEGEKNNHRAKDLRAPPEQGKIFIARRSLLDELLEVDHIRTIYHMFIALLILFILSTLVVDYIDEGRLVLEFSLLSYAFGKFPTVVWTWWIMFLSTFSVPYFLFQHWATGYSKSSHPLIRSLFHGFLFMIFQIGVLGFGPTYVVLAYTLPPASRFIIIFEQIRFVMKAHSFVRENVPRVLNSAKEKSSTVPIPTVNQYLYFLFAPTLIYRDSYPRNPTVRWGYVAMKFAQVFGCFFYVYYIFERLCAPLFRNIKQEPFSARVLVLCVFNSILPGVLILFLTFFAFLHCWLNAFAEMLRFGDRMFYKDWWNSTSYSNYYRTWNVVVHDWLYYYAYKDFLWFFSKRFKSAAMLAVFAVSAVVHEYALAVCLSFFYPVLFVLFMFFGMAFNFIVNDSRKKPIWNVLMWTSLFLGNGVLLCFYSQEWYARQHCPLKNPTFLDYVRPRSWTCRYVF
Description: Inhibition of human ACAT1

Adenosine receptor A2a = Adenosine receptor A2a (Homo sapiens, UniProt P29274); assay: Activity against human A2AR assessed as inhibition of cAMP accumulation by cAMP functional assay
Adenosine receptor A2a, sequence (P29274 whole entry): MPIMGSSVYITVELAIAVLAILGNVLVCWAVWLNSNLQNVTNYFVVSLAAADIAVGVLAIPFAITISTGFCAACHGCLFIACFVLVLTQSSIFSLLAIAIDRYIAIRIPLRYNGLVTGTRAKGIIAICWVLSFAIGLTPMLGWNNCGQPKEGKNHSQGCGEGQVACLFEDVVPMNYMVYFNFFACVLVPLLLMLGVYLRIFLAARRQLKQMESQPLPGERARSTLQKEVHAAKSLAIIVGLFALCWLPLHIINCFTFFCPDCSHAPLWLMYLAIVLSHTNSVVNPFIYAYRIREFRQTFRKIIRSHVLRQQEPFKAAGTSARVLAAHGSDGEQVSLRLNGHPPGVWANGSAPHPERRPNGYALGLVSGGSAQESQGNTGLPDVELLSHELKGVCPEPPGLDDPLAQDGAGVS

Voltage-gated inwardly rectifying potassium channel KCNH2, sequence (Q12809 whole entry): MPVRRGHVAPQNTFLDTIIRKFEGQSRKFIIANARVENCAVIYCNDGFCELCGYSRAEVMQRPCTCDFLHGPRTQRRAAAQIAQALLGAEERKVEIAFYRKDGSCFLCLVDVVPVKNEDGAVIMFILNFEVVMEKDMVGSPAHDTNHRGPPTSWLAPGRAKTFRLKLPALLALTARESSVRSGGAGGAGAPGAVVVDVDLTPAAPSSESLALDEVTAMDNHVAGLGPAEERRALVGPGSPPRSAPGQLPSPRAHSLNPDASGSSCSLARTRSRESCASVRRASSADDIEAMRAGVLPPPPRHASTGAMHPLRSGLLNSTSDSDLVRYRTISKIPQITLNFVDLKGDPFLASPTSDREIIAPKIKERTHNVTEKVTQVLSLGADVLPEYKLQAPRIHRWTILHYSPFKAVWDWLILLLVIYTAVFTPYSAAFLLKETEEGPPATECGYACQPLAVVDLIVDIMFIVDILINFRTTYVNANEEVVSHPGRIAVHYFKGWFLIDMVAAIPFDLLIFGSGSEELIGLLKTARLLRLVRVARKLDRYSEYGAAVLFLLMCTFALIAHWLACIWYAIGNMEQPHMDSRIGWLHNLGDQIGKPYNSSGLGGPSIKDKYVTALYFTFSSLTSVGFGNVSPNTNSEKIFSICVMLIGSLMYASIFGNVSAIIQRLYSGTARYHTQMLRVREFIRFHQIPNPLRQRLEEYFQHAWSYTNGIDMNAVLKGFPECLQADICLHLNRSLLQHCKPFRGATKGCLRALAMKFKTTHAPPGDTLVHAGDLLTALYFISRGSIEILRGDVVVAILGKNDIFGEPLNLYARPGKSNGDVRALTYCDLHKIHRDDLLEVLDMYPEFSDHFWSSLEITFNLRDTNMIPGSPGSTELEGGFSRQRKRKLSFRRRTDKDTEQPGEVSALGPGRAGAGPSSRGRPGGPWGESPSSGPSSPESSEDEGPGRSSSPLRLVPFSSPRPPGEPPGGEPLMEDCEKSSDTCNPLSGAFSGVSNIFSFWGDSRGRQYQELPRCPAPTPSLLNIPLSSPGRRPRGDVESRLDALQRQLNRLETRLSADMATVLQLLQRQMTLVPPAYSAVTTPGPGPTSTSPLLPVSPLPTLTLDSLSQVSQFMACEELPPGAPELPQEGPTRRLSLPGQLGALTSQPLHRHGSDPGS

Structure (SMILES)	IC50 [1]	logD [2]	Ki [3]	Activity (Mus musculus)	IC50 [4]	IC50 [5]	Ki (Adenosine receptor A2a)	IC50 (Adenosine receptor A2a)
Cc1ccc2[nH]c(-c3ccc(N4CCC(O[C@H]5CC[C@H](CC(=O)O)CC5)CC4)nc3)nc2n1	1910 nM	–	–	–	–	–	–	–
O=C(O)C1CCCCC1Nc1ccc(-c2ccc(-c3nc4cc(Cl)ccc4[nH]3)cn2)cn1 (racemic)	21 nM	1.51	3560 nM	0%	4.2 nM	> 10000 nM	–	–
O=C(O)C1CC1COc1ccc(-c2ccc(-c3nc4cc(Cl)ccc4[nH]3)cn2)cn1 (racemic)	30 nM	1.19	19000 nM	91%	3.6 nM	> 2000 nM	–	–
O=C(O)C1(COc2ccc(-c3ccc(-c4nc5cc(Cl)ccc5[nH]4)cn3)cn2)CCC1	5 nM	1.24	20000 nM	89%	1.7 nM	1720 nM	–	–
O=C(O)C1(COc2ccc(-c3ccc(-c4nc5cc(Cl)ccc5[nH]4)cn3)cn2)COC1	36 nM	1.16	6540 nM	87%	5.3 nM	> 10000 nM	–	–
N#Cc1ccc(-c2ccc(-c3nc4cc(C(F)(F)F)ccc4[nH]3)cc2)cc1	–	–	616 nM	–	98 nM	1400 nM	–	–
O=C(O)[C@H]1CC[C@@H](Oc2ccc(-c3ccc(-c4nc5cc(Cl)ccc5[nH]4)cn3)cn2)CC1	2.8 nM	–	5390 nM	144%	1.5 nM	> 2000 nM	–	–
CC1(C(=O)O)CCCN(c2ccc(-c3ccc(-c4nc5cc(Cl)ccc5[nH]4)cn3)cn2)C1 (racemic)	36 nM	1.43	1980 nM	63%	4.5 nM	> 2000 nM	–	–
O=C(O)C1(CNc2ccc(-c3ccc(-c4nc5cc(Cl)ccc5[nH]4)cn3)cn2)CC1	20 nM	1.33	12100 nM	0%	2.9 nM	> 10000 nM	–	–
FC(F)(F)c1ccc2[nH]c(-c3ccc(-c4ccccc4)cc3)nc2c1	–	–	2310 nM	–	1330 nM	–	–	–
COc1ccc2[nH]c(-c3ccc(N4CCC(O[C@H]5CC[C@H](CC(=O)O)CC5)CC4)nc3)nc2n1	78 nM	–	20500 nM	–	–	> 10000 nM	–	–
CN1CCN(c2ccc(-c3ccc(-c4nc5cc(C(F)(F)F)ccc5[nH]4)cc3)cn2)CC1	–	–	426 nM	–	70 nM	2720 nM	–	–
O=C(O)[C@H]1CC[C@@H](OC2CCN(c3ccc(-c4nc5cc(F)ccc5[nH]4)cn3)CC2)CC1	–	–	–	–	–	> 10000 nM	> 10000 nM	–
O=C(O)C[C@H]1CC[C@@H](Oc2ccc(-c3ccc(-c4nc5cc(C(F)(F)F)ccc5[nH]4)cn3)cn2)CC1	1.5 nM	–	4100 nM	–	–	–	–	–
CN1CCN(c2ccc(-c3ccc(-c4nc5cc(C(F)(F)F)ccc5[nH]4)cc3)cc2)CC1	–	–	820 nM	–	66 nM	1350 nM	–	–
O=C(O)c1ccc(CNc2ccc(-c3ccc(-c4nc5cc(Cl)ccc5[nH]4)cn3)cn2)cc1	84 nM	1.3	11900 nM	–	9.6 nM	> 10000 nM	–	–
O=C(O)C[C@H]1CC[C@@H](Oc2ccc(-c3ccc(-c4nc5c(F)cc(F)cc5[nH]4)cn3)cn2)CC1	2.3 nM	–	3800 nM	–	–	–	–	–
O=C(O)C[C@H]1CC[C@H](OC2CCN(c3ccc(-c4nc5cc(C(F)(F)F)cnc5[nH]4)cn3)CC2)CC1	125 nM	–	12000 nM	–	23.6 nM	> 10000 nM	–	–
FC(F)(F)c1ccc2[nH]c(-c3ccc(-c4ccc(N5CCOCC5)nc4)cc3)nc2c1	–	–	13000 nM	–	65 nM	1320 nM	–	–
FC(F)(F)c1ccc2[nH]c(-c3ccc(-c4cccnc4)cc3)nc2c1	–	–	1430 nM	–	127 nM	–	–	–

Structure (SMILES)	IC50 [1]	logD [2]	Ki [3]	Activity (Mus musculus)	IC50 [4]	IC50 [5]	Ki (Adenosine receptor A2a)	IC50 (Adenosine receptor A2a)
O=C(O)C[C@H]1CC[C@H](c2ccc(-c3ccc(-c4nc5cc(Cl)ccc5[nH]4)cc3)cc2)CC1	–	2.08	–	–	–	–	–	–
O=C(O)C[C@H]1CC[C@@H](Oc2ccc(-c3ccc(-c4nc5cc(F)c(F)cc5[nH]4)cn3)cn2)CC1	2.6 nM	–	19000 nM	–	1.7 nM	> 2000 nM	–	–
O=C(O)C1CC(Oc2ccc(-c3ccc(-c4nc5cc(Cl)ccc5[nH]4)cn3)cn2)C1 (racemic)	24 nM	1.16	20200 nM	54%	3.5 nM	> 2000 nM	–	–
N#Cc1ccc2[nH]c(-c3ccc(N4CCC(O[C@H]5CC[C@H](CC(=O)O)CC5)CC4)nc3)nc2c1	528 nM	–	3000 nM	–	–	> 10000 nM	–	–
O=C(O)C[C@H]1CC[C@@H](Oc2ccc(-c3ccc(-c4nc5cc(Cl)cnc5[nH]4)cn3)cn2)CC1	5.9 nM	–	8600 nM	–	3.2 nM	1630 nM	–	–
CC1(C)CN(c2ccc(-c3ccc(-c4nc5cc(Cl)ccc5[nH]4)cn3)cn2)CCC1CC(=O)O (racemic)	33 nM	1.56	1740 nM	66%	4.5 nM	> 2000 nM	–	–
O=C(O)C1CC(Nc2ccc(-c3ccc(-c4nc5cc(Cl)ccc5[nH]4)cn3)cn2)C1 (racemic)	247 nM	1.29	> 60000 nM	–	22 nM	> 2000 nM	–	–
O=C(O)C1CCC(Nc2ccc(-c3ccc(-c4nc5cc(Cl)ccc5[nH]4)cn3)cn2)CC1 (racemic)	48 nM	1.37	3750 nM	70%	5.4 nM	> 2000 nM	–	–
O=C(O)CC1CCN(c2ccc(-c3ccc(-c4nc5cc(Cl)ccc5[nH]4)cn3)cn2)CC1	108 nM	1.48	5220 nM	62%	10.2 nM	> 2000 nM	–	–
Oc1ccc(-c2ccc(-c3nc4cc(C(F)(F)F)ccc4[nH]3)cc2)cc1	–	–	1640 nM	–	451 nM	–	–	–
O=C(O)C1CCC2(CCN(c3ccc(-c4nc5cc(C(F)(F)F)ccc5[nH]4)cn3)CC2)OC1 (racemic)	–	–	–	–	–	> 10000 nM	> 10000 nM	–
N#Cc1ccc(-c2ccc(-c3nc4cc(C(F)(F)F)ccc4[nH]3)cc2)cn1	–	–	> 60000 nM	–	38 nM	> 10000 nM	–	–
O=C(O)C[C@H]1CC[C@H](c2ccc(-c3ccc(-c4nc5cc(C(F)(F)F)ccc5[nH]4)cc3)cc2)CC1	1.8 nM	2.31	–	–	–	–	–	–
Cc1ccc2[nH]c(-c3ccc(-c4ccc(O[C@H]5CC[C@@H](CC(=O)O)CC5)nc4)nc3)nc2n1	–	–	> 60000 nM	–	30.8 nM	> 10000 nM	–	490 nM
O=C(O)C[C@H]1CC[C@H](OC2CCN(c3ccc(-c4nc5cc(Cl)cnc5[nH]4)cn3)CC2)CC1	271 nM	–	–	–	–	> 10000 nM	–	–
O=C(O)[C@H]1CC[C@H](Oc2ccc(-c3ccc(-c4nc5cc(Cl)ccc5[nH]4)cn3)cn2)CC1	6.3 nM	1.39	3520 nM	83%	2.6 nM	1970 nM	–	–
CC(C)(COc1ccc(-c2ccc(-c3nc4cc(Cl)ccc4[nH]3)cn2)cn1)C(=O)O	1.4 nM	1.44	8140 nM	–	0.7 nM	971 nM	–	–
O=C(O)C1(COc2ccc(-c3ccc(-c4nc5cc(Cl)ccc5[nH]4)cn3)cn2)CC1	11 nM	1.35	10800 nM	50%	3.1 nM	1650 nM	–	–
O=C(O)C[C@H]1CC[C@@H](Oc2ccc(-c3ccc(-c4nc5cc(Cl)ccc5[nH]4)cn3)cn2)CC1	1.7 nM	–	3000 nM	–	–	–	–	–
